PubChem BioAssay (NCI)
Values joined by “and” are separate entries in the source; they are usually repeats but may differ in a detail not shown here. Identical values can stand only once.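 Values below derive from 48-hour exposures of cells grown in 96-well plates, with endpoints linearly interpolated between the two concentrations bracketing the appropriate inhibition level. Abbreviation: GI50, concentration required for 50% inhibition of growth. TGI: total growth inhibition.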

Assays:
Assay in all cases: NCI tumour cell line growth inhibition, 48 h
[1] = test system: UO-31 renal
[2] = test system: SK-MEL-28 melanoma
[3] = test system: EKVX NSCLC
[4] = test system: NCI-H23 lung
[5] = test system: DLD-1 colon
[6] = test system: UACC-62 melanoma
[7] = test system: HOP-18 NSCLC
[8] = test system: KM12 colon
[9] = test system: SW-620 colon
[10] = test system: BT-549 breast
[11] = test system: TK-10 renal
[12] = test system: HOP-92 NSCLC
[13] = test system: K-562 leukemia
[14] = test system: PC-3 prostate
[15] = test system: NCI-H226 lung
[16] = test system: A498 renal
[17] = test system: ACHN renal
[18] = test system: M14 melanoma
[19] = test system: OVCAR-3 ovarian
[20] = test system: COLO 205 colon
[21] = test system: P388 leukemia
[22] = test system: SF-295 CNS
[23] = test system: 786-0 renal
[24] = test system: MDA-MB-435
[25] = test system: M19-MEL melanoma
[26] = test system: U251 CNS
[27] = test system: SK-MEL-2 melanoma
[28] = test system: CCRF-CEM leukemia
[29] = test system: UACC-257 melanoma
[30] = test system: MALME-3M melanoma
[31] = test system: RPMI-8226 leukemia
[32] = test system: A549 NSCLC
[33] = test system: RXF 393 renal
[34] = test system: SF-539 CNS
[35] = test system: P388/ADR leukemia
[36] = test system: SR leukemia
[37] = test system: NCI/ADR-RES ovarian
[38] = test system: HS 578T breast
[39] = test system: IGROV1 ovarian
[40] = test system: MDA-MB-231 breast
[41] = test system: SF-268 CNS
[42] = test system: SN12K1 renal
[43] = test system: MCF7 breast
[44] = test system: LOX IMVI melanoma
[45] = test system: T-47D breast
[46] = test system: OVCAR-5 ovarian
[47] = test system: HL-60(TB) leukemia
[48] = test system: HOP-62 NSCLC
[49] = test system: KM20L2 colon
[50] = test system: DU-145 prostate
[51] = test system: MDA-N
[52] = test system: HCC-2998 colon
[53] = test system: SK-OV-3 ovarian
[54] = test system: SNB-19 CNS
[55] = test system: HCT-15 colon

For C/C(=C\COc1ccc2ccc(=O)oc2c1)C1=CC(=O)C(C)(C)O1, the GI50 [1] was 3.83 µM, the TGI [1] was 14.7 µM and 14 µM and the GI50 [2] was 4.82 µM. For the same compound, the TGI [2] was 18.3 µM and 10.1 µM, the GI50 [3] was 4.9 µM and the TGI [3] was 28.2 µM and 30.6 µM. The GI50 [4] was 2.79 µM, the TGI [4] was 12.3 µM and 8.98 µM and the TGI [5] was 30.8 µM. For the same compound, the GI50 [6] was 2.3 µM, the TGI [6] was 6.43 µM and 10.5 µM and the TGI [7] was 80.5 µM. The GI50 [8] was 2.66 µM and 2.35 µM, the TGI [8] was 9.77 µM and 8.59 µM and the GI50 [9] was 2.27 µM. For the same compound, the TGI [9] was 5.58 µM and 14.7 µM, the TGI [10] was 19.1 µM and the TGI [11] was 16.7 µM. The GI50 [12] was 2.38 µM, the TGI [12] was 7.24 µM and 9.92 µM and the GI50 [13] was 1.85 µM. For the same compound, the TGI [14] was 23.3 µM, the GI50 [15] was 2.64 µM and the TGI [15] was 7.24 µM and 10.2 µM. For the same compound, the GI50 [16] was 2.79 µM, the TGI [16] was 7.32 µM and 9.56 µM and the TGI [17] was 15.9 µM. For the same compound, the TGI [18] was 16.3 µM, the GI50 [19] was 2.44 µM and the TGI [19] was 5.55 µM and 9.43 µM. For the same compound, the GI50 [20] was 2.73 µM, the TGI [20] was 6.64 µM and 8.96 µM and the TGI [21] was 8.39 µM. The GI50 [22] was 4.3 µM, the TGI [22] was 20.4 µM and 8.41 µM and the TGI [23] was 12.9 µM. It also gave a TGI [24] of 13.2 µM, a TGI [25] of 14.6 µM and a GI50 [26] of 2.7 µM. The TGI [26] was 10.1 µM and 8.61 µM, the GI50 [27] was 4.19 µM and the TGI [27] was 23.2 µM and 15.1 µM. The GI50 [28] was 2.28 µM, the TGI [28] was 7.11 µM and 21.4 µM and the GI50 [29] was 7.22 µM. The TGI [29] was 29.7 µM and 11.3 µM, the TGI [30] was 25.6 µM and 14.8 µM and the TGI [31] was 6.2 µM and 15.7 µM. The GI50 [32] was 4.18 µM, the TGI [32] was 47.2 µM and 51.9 µM and the GI50 [33] was 2.39 µM. For the same compound, the TGI [33] was 12.2 µM and 5.61 µM, the TGI [34] was 4.88 µM and 8.64 µM and the TGI [35] was 7.3 µM. For the same compound, the TGI [36] was 4.92 µM, the GI50 [37] was 3.81 µM and the TGI [37] was > 100 µM and 35.6 µM. The TGI [38] was 7.3 µM, the GI50 [39] was 2.73 µM and the TGI [39] was 9.02 µM and 22.1 µM. For the same compound, the TGI [40] was 22.9 µM, the GI50 [41] was 4.74 µM and the TGI [41] was 14.9 µM and 14.3 µM. The TGI [42] was 9.97 µM, the GI50 [43] was 2.35 µM and 1.09 µM and the TGI [43] was 12.9 µM and 5.4 µM. The GI50 [44] was 2.2 µM, the TGI [44] was 9.69 µM and 7.47 µM and the TGI [45] was 30.6 µM. For the same compound, the GI50 [46] was 3.19 µM, the TGI [46] was 10.8 µM and 20.9 µM and the GI50 [47] was 1.76 µM. For the same compound, the TGI [47] was 5.09 µM and 16.9 µM, the GI50 [48] was 6.12 µM and the TGI [48] was 39.7 µM and 14.1 µM. The TGI [49] was 8.53 µM, the TGI [50] was 7.34 µM and the TGI [51] was 16 µM. The GI50 [52] was 2.85 µM, the TGI [52] was 5.76 µM and 8.34 µM and the GI50 [53] was 3.06 µM. The TGI [53] was 8.72 µM and 34.1 µM, the GI50 [54] was 2.94 µM and the TGI [54] was 8.22 µM and 30.5 µM. For the same compound, the TGI [55] was 15.9 µM and 19.4 µM.
